Laboratory results reported in patent US20050085557A1, “Therapeutic procedures” (priority 2003, published 2005).

Experiments:
[1] = test system: human B-lymphocyte (WI-L2) cell line; experiment: Cytotoxicity assay (LDH release), WI-L2; type: cell-based; conditions: FIG. 6A; in this concentration range (0-100 μM)
Experimental: Cytotoxicity assays. WI-L2 human B-lymphocyte line, HAAE-1 human abdominal aortic endothelial line, MH-S murine alveolar macrophage line, and J774A.1 murine tissue macrophage line were obtained from the ATCC. Human aortic endothelial cells (HAEC) and human vascular smooth muscle cells (VSMS) were obtained from Cambrex Bio Science. Jurkat E6-IT-lymphocytes were kindly provided by Dr. J. Kaye (The Scripps Research Institute). Cells were cultured in ATCC-recommended media with 10% fetal calf serum. Cells were incubated in a controlled atmosphere at 37° C., with 5 or 7% CO2. For lactate dehydrogenase (LDH) release assays, adherent cells were harvested either by addition of 0.05% trypsin/EDTA or by scraping. The cells obtained were seeded onto 96-well microtiter plates (25,000 cells/well) and allowed to recover for 24-48 h. […] Cytotoxicity was then determined by measuring lactate dehydrogenase (LDH) release from cells in culture. […] 100% Cytotoxicity was defined as the maximum amount of LDH released by dead cells as shown by trypan blue exclusion, or the highest amount of LDH detected upon lysis of cells by 0.9% Triton X-100. The IC50 values were determined by comparison of the raw duplicate data for concentration versus cytotoxicity (%) to non-linear regression analysis (Hill plot) using Graphpad v3.0 software for Macintosh. […]

[2] = test system: T-lymphocyte cell line (Jurkat E6.1); experiment: Cytotoxicity assay (LDH release), Jurkat E6.1; type: cell-based; conditions: FIG. 6B; in this concentration range (0-100 μM)
Experimental: Cytotoxicity assays. WI-L2 human B-lymphocyte line, HAAE-1 human abdominal aortic endothelial line, MH-S murine alveolar macrophage line, and J774A.1 murine tissue macrophage line were obtained from the ATCC. Human aortic endothelial cells (HAEC) and human vascular smooth muscle cells (VSMS) were obtained from Cambrex Bio Science. […] Cells were cultured in ATCC-recommended media with 10% fetal calf serum. Cells were incubated in a controlled atmosphere at 37° C., with 5 or 7% CO2. For lactate dehydrogenase (LDH) release assays, adherent cells were harvested either by addition of 0.05% trypsin/EDTA or by scraping. The cells obtained were seeded onto 96-well microtiter plates (25,000 cells/well) and allowed to recover for 24-48 h. Cells were washed gently and media replaced with fresh media containing 5% fetal calf serum. […] Cytotoxicity was then determined by measuring lactate dehydrogenase (LDH) release from cells in culture. […] 100% Cytotoxicity was defined as the maximum amount of LDH released by dead cells as shown by trypan blue exclusion, or the highest amount of LDH detected upon lysis of cells by 0.9% Triton X-100. The IC50 values were determined by comparison of the raw duplicate data for concentration versus cytotoxicity (%) to non-linear regression analysis (Hill plot) using Graphpad v3.0 software for Macintosh. […]

J774.1 macrophages = experiment: Lipid-loading assay (foam cell formation); type: cell-based, murine; conditions: LDL 100 μg/mL with compound (20 μM), 72 h, unactivated J774.1 macrophages
Experimental: Macrophages were first grown for 24 h in RPMI-1640 containing 10% fetal bovine serum and then incubated for 72 h in the same media containing LDL (100 μg/mL). Cells were fixed with 4% formaldehyde and stained with hematoxylin and oil red O such that lipid granules stained a darker red color. Magnification×100.
J774.1 macrophages were grown for 24 h in RPMI-1640 containing 10% fetal bovine serum. […] Cells were fixed with 4% formaldehyde and stained with hematoxylin and oil red O such that lipid granules stained a darker red color. Magnification×100.
Lipid-loading assay (foam cellformation). J774.1 macrophages were incubated in ATCC-recommended media containing 10% fetal bovine serum under a controlled atmosphere of 5 or 7% CO2 at 37° C., in 8-well chamber slides. […] At termination, cells were washed twice with PBS (pH 7.4). The cells were then fixed with 6% (v/v) paraformaldehyde in PBS for 30 minutes, rinsed with propylene glycol for 2 minutes and lipids were stained with 5 mg/ml Oil Red O for 8 minutes. The cells were counterstained with Harris' hematoxylin for 45 seconds, and background staining was removed with […] followed by washing once in PBS and once in tap water. […] The number of lipid-laden cells was scored out of a total of at least 100 cells counted in a single field in each slide, and expressed as a percentage of total cells. […]

LDL / apoB-100 = target: T1, LDL / apoB-100 (Homo sapiens, UniProt P04114); experiment: Circular dichroism of LDL secondary structure; type: biochemical; conditions: LDL 100 μg/ml, compound 10 μM, PBS pH 7.4, 37° C., 48 h; for random coil of LDL after incubation (circular dichroism): normal LDL 27±2%; for a helical structure of LDL after incubation (circular dichroism): normal LDL ~40±2%
T1 construct: Circular dichroism (CD) spectra of LDL (100 μg/ml)
T1 sequence (P04114 28-4563, species assumed): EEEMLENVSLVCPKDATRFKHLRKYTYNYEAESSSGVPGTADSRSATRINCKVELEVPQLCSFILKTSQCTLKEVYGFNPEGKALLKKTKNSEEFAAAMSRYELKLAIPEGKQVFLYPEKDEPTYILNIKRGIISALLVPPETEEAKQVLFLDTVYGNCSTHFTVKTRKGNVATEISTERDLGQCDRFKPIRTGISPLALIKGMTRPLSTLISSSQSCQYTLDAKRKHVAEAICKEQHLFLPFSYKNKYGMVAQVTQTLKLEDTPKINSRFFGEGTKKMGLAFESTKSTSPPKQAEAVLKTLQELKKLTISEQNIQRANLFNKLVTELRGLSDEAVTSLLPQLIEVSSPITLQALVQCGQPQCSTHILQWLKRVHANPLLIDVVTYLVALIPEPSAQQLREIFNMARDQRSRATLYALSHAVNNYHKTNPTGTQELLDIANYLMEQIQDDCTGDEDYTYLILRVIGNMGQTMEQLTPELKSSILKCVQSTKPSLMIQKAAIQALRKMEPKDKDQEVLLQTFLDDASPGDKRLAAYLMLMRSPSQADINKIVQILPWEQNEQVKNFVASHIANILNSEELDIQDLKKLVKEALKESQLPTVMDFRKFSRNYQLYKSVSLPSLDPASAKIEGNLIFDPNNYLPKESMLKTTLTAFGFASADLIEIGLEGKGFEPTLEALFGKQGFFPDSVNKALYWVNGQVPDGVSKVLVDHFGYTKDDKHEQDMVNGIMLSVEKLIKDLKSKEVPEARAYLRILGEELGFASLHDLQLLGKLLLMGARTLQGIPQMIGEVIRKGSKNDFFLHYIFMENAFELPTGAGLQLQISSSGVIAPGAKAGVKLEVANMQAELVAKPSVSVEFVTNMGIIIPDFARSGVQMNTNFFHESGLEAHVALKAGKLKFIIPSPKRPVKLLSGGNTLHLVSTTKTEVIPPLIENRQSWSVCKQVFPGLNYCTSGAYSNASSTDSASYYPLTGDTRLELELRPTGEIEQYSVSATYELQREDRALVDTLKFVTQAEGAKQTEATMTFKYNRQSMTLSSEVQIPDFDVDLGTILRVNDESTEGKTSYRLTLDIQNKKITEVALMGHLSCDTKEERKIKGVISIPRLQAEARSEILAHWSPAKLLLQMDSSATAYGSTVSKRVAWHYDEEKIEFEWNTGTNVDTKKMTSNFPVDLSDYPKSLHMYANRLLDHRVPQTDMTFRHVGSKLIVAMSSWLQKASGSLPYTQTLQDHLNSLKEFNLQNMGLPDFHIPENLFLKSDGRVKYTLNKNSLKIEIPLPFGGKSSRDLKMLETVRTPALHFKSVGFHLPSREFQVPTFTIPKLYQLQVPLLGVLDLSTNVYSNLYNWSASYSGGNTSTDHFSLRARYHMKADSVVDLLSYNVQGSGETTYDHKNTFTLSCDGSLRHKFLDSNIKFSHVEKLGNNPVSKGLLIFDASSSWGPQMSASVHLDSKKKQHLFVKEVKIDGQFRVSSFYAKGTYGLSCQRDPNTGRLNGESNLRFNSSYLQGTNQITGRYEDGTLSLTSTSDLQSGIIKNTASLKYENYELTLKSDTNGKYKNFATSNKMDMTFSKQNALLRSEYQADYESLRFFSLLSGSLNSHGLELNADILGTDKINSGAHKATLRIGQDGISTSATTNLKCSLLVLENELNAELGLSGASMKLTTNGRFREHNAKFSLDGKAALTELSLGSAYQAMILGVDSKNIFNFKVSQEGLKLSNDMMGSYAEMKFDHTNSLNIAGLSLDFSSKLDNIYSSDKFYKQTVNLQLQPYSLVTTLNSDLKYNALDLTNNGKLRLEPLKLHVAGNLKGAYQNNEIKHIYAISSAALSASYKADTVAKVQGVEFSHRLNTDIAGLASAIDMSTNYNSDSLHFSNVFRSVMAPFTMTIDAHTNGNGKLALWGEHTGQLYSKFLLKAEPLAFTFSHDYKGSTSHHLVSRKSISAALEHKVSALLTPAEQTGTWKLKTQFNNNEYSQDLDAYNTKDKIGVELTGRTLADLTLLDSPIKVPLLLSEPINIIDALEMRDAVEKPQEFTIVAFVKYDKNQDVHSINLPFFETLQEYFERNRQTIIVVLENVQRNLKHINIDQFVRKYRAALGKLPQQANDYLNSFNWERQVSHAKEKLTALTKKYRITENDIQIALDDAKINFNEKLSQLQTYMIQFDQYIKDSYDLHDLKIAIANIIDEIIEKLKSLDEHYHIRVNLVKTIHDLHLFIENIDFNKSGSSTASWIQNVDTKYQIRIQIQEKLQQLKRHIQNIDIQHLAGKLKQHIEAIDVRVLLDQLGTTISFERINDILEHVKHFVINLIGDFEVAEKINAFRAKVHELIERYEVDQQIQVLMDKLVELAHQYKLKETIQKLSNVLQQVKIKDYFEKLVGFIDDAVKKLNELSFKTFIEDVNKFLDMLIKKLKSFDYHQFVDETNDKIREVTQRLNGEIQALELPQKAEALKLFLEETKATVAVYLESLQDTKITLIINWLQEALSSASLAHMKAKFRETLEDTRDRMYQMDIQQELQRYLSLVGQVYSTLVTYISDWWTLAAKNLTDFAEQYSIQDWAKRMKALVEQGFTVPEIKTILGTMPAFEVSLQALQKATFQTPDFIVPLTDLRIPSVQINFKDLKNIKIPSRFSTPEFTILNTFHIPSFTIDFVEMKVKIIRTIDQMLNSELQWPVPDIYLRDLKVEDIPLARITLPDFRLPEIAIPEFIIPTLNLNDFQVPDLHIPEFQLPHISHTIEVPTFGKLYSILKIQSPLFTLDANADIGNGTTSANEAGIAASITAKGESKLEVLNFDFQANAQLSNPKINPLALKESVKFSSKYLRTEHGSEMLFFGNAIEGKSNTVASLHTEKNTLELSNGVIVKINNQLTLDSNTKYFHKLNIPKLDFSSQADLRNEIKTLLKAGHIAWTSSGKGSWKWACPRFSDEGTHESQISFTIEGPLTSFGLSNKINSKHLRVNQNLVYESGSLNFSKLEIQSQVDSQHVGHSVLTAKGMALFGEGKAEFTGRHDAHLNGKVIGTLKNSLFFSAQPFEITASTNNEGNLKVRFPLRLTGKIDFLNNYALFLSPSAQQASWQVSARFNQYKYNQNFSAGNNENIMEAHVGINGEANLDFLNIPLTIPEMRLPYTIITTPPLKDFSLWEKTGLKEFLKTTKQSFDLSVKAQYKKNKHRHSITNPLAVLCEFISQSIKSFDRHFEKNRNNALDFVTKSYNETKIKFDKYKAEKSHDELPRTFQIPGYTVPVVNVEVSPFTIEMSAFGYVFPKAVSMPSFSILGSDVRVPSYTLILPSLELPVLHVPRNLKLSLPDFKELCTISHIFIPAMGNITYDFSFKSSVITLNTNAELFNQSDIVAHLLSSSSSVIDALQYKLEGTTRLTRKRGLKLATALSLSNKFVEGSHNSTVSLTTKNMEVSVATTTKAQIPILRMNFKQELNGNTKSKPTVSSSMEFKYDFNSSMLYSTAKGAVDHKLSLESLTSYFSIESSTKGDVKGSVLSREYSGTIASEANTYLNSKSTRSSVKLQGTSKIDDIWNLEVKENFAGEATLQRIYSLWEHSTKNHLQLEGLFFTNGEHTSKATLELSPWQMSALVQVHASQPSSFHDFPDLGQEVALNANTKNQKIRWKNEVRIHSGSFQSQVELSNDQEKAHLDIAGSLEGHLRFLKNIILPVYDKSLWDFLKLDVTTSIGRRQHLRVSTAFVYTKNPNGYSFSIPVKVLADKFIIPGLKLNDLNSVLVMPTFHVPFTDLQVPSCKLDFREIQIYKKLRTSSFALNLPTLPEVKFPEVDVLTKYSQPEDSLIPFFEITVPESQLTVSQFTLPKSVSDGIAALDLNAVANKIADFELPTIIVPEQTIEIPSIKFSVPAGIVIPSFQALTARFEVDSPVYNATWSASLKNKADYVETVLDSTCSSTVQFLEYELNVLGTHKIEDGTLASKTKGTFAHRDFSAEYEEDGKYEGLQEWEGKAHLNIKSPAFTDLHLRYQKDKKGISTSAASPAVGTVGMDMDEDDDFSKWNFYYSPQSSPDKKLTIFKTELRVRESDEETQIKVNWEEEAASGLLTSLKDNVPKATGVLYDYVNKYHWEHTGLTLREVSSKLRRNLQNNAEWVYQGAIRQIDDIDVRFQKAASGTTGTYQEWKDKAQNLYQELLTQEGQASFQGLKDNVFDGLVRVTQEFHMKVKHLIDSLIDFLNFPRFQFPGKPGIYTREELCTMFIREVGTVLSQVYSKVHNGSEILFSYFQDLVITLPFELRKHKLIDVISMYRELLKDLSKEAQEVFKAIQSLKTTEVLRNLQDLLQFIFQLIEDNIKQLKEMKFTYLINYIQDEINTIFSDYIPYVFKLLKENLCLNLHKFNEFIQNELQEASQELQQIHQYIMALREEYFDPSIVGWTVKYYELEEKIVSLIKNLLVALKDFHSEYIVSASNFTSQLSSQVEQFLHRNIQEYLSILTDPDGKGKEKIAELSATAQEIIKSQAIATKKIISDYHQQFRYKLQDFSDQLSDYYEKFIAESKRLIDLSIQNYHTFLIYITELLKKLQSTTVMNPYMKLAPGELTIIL
Experimental: Circular dichroism. […] Spectra were recorded in the peptidic range (200-260 nm). To increase the signal-to-noise ratio, multiple spectra (three) were averaged for each measurement.

[3] = Aldolization of ketoaldehyde 4a with amino acids (1H NMR); type: physicochemical; conditions: DMSO-d6 (800 μl) and D2O (80 μl) without amino acid
Experimental: Aldolization of ketoaldehyde 4a with amino acids. […] To this solution was added 1 equivalent of either: a) L-proline, […] b) glycine, c) L-lysine hydrochloride or d) L-lysine ethyl ester dihydrochloride. At time points the samples were analyzed by ^1H NMR.

[4] = Aldolization of secoketoaldehyde 4a with atherosclerotic artery and blood fractions (1H NMR); type: in vitro ADME, human; conditions: lyophilized PBS
Experimental: Aldolization of secoketoaldehyde 4a with atherosclerotic artery and blood fractions. […] To this solution was added either a) atherosclerotic artery (2.1 mg) that had been homogenized in PBS (1 ml) in a tissue homogenizer and then lyophilized to dryness, b) lyophilized human blood (1 ml), c) lyophilized human plasma (1 ml) or d) PBS lyophilized (1 ml). At time points samples were removed and analyzed by ^1H NMR vide supra.

CC(C)CCC[C@@H](C)[C@H]1CC[C@H]2[C@@H]3CC=C4C[C@@H](O)CC[C@]4(C)[C@H]3CC[C@]12C [compound 3, cholesterol]
cytotoxicity against B-cell (WI-L2) cell line [1]: No cytotoxicity
cytotoxicity against T-cell (Jurkat) cell line [2]: No cytotoxicity

CC(C)CCC[C@@H](C)[C@H]1CCC2C(CC=O)C([C@@]3(C)CC[C@H](O)CC3=O)CC[C@@]21C (stereo partly drawn) [4a, 3β-Hydroxy-5-oxo-5,6-secocholestan-6-al]
lipid-loading of macrophages / foam cell formation (J774.1 macrophages): foam cells began to appear
random coil of LDL after incubation (circular dichroism) (LDL / apoB-100): ~39±2%
a helical structure of LDL after incubation (circular dichroism) (LDL / apoB-100): ~23±5%
aldolization of 4a (background) [3]: no aldolization
aldolization of 4a (background) [4]: no aldolization

CC(C)CCC[C@@H](C)[C@H]1CCC2C3C(CC[C@@]21C)[C@@]1(C)CC[C@H](O)C[C@@]1(O)[C@@H]3C=O (stereo partly drawn) [5a, 3β-Hydroxy-5β-hydroxy-B-norcholestane-6β-carboxaldehyde]
lipid-loading of macrophages / foam cell formation (J774.1 macrophages): foam cells began to appear
random coil of LDL after incubation (circular dichroism) (LDL / apoB-100): 32±+4%
a helical structure of LDL after incubation (circular dichroism) (LDL / apoB-100): ~20±2%
